ChEMBL document CHEMBL5465560, “Selectivity Literature for EUbOPEN Chemogenomic Library” (2024)
Blank lines part the entries; values can stand above or below the compound they belong to.

Legend:
[1] = biological target: Cannabinoid receptor 2 (Homo sapiens) (UniProt P34972); assay: Selectivity interaction (Eurofins CEREP Diversity Profile (receptors and ion channels)) EUB0000279b CNR2; settings: at 10 µM
[2] = biological target: Beta-2 adrenergic receptor (Homo sapiens, UniProt P07550); assay: Selectivity interaction (Panel of kinases, GPCRs, ion channels and transporters (enzymatic assay)) EUB0000266bCl ADRB2
[3] = biological target: Serine/threonine-protein kinase PRP4 homolog (Homo sapiens) (UniProt Q13523); assay: Selectivity interaction (ActivX KiNativ screen (kinase selectivity in THP-1 cell lysates)) EUB0000639a PRPF4; format: subcellular; settings: lysate, at 1 µM
[4] = biological target: Serine/threonine-protein kinase N1 (Homo sapiens, UniProt Q16512); assay: Selectivity interaction (ActivX KiNativ screen (kinase selectivity in THP-1 cell lysates)) EUB0000639a PKN1; format: subcellular; settings: lysate, at 0.04 µM
[5] = biological target: Tyrosine-protein kinase Lyn (Homo sapiens, UniProt P07948); assay: Selectivity interaction (Millipore kinase profiler) EUB0000124b LYN; settings: at 10 µM
[6] = system: Tyrosine-protein kinase ABL1 (Homo sapiens), P00519 [F317I]; assay: Selectivity interaction (KinomeScan (DiscoverX)) EUB0000655a ABL1; settings: at 10 µM
[7] = biological target: Serine/threonine-protein kinase 35 (Homo sapiens) (UniProt Q8TDR2); assay: Selectivity interaction (KinomeScan (DiscoverX)) EUB0000655a STK35; settings: at 10 µM
[8] = system: T1, Receptor-type tyrosine-protein kinase FLT3 (Homo sapiens), P36888 [N841I]; settings: at 10 µM
T1 sequence (whole entry): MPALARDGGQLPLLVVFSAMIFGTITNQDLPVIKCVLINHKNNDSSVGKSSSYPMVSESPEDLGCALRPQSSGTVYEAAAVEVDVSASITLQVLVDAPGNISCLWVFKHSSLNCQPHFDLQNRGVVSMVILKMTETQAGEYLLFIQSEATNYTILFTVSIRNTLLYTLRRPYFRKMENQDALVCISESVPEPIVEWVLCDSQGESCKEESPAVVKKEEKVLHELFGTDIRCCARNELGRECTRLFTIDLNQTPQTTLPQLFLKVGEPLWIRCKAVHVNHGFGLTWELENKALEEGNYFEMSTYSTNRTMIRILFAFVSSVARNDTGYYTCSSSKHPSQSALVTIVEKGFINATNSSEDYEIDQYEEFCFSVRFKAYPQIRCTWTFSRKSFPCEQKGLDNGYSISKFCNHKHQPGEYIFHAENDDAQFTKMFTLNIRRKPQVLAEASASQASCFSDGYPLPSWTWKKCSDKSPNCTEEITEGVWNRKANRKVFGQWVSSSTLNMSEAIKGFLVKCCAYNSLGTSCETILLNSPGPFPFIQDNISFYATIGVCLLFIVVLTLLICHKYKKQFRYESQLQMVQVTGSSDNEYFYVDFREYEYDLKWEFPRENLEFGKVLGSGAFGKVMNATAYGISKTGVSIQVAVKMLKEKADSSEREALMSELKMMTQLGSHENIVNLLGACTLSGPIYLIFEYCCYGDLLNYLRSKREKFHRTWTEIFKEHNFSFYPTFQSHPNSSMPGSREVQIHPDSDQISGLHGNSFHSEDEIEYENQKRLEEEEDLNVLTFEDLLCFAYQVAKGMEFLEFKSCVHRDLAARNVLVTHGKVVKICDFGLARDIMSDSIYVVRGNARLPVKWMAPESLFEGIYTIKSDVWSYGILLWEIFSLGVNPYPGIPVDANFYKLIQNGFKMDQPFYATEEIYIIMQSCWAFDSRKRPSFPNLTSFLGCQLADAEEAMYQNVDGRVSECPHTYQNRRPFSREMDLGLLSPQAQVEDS

[9] = biological target: eIF-2-alpha kinase GCN2 (Homo sapiens) (UniProt Q9P2K8); assay: Selectivity interaction (ActivX KiNativ screen (ex vivo kinase selectivity in human PBMCs)) EUB0001619a EIF2AK4; format: cell-based; settings: PBMC, at 1 µM
eIF-2-alpha kinase GCN2 (Homo sapiens), sequence (Q9P2K8 whole entry): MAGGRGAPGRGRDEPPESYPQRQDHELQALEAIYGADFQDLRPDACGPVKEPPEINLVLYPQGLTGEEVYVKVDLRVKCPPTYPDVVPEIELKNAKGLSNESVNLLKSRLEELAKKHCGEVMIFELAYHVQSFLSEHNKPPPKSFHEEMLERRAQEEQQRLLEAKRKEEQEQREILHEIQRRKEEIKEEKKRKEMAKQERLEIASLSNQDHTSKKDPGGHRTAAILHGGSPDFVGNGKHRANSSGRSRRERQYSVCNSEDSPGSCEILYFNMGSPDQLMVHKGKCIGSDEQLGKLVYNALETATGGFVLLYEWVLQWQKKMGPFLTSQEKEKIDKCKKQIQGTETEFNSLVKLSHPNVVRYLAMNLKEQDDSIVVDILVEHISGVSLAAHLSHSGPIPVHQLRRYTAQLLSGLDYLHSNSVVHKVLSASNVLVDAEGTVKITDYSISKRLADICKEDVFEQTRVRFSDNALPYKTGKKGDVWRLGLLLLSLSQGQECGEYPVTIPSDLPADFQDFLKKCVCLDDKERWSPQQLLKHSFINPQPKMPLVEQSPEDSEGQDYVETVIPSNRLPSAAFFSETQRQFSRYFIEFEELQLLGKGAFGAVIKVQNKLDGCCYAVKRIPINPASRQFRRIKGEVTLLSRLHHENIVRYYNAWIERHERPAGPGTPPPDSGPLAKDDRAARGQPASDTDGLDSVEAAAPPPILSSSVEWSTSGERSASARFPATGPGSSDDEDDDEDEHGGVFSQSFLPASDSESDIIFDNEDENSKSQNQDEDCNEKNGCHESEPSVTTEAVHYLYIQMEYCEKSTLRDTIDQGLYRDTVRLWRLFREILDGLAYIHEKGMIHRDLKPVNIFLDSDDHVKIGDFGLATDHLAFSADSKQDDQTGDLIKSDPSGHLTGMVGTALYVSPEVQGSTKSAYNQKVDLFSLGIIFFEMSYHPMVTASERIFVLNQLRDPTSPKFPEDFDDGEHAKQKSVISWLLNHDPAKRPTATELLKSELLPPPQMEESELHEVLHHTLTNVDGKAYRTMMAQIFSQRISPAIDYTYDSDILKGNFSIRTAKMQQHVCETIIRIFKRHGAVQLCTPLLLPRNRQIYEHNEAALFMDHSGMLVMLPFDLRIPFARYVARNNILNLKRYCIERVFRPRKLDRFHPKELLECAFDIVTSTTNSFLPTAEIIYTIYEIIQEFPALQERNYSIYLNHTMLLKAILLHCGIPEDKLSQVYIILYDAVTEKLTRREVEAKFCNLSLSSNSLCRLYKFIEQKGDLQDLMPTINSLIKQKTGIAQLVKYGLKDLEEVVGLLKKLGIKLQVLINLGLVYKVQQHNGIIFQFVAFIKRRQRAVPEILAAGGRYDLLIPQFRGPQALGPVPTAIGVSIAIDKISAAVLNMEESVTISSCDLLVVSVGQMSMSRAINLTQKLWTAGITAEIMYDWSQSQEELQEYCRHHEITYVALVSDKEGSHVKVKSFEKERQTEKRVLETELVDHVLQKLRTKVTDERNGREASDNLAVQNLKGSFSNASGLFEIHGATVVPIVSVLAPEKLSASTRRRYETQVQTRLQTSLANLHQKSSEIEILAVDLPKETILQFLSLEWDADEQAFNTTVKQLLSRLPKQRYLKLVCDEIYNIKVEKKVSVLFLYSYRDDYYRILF

Tyrosine-protein kinase Lyn, sequence (P07948 2-512 limits assumed): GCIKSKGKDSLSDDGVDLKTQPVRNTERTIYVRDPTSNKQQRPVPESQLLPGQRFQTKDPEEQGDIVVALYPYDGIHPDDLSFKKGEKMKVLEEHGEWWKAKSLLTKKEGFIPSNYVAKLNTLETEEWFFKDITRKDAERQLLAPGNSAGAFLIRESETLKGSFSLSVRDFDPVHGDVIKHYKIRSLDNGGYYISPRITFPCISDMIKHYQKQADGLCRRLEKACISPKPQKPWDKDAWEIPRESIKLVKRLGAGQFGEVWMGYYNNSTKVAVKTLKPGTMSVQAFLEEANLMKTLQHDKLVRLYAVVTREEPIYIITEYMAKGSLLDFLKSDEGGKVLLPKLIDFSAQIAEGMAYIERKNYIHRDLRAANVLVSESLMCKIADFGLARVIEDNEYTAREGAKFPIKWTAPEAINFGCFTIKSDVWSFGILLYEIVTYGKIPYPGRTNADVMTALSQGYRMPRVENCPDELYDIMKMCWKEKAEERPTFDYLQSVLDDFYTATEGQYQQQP
Serine/threonine-protein kinase PRP4 homolog (Homo sapiens), sequence (Q13523 whole entry): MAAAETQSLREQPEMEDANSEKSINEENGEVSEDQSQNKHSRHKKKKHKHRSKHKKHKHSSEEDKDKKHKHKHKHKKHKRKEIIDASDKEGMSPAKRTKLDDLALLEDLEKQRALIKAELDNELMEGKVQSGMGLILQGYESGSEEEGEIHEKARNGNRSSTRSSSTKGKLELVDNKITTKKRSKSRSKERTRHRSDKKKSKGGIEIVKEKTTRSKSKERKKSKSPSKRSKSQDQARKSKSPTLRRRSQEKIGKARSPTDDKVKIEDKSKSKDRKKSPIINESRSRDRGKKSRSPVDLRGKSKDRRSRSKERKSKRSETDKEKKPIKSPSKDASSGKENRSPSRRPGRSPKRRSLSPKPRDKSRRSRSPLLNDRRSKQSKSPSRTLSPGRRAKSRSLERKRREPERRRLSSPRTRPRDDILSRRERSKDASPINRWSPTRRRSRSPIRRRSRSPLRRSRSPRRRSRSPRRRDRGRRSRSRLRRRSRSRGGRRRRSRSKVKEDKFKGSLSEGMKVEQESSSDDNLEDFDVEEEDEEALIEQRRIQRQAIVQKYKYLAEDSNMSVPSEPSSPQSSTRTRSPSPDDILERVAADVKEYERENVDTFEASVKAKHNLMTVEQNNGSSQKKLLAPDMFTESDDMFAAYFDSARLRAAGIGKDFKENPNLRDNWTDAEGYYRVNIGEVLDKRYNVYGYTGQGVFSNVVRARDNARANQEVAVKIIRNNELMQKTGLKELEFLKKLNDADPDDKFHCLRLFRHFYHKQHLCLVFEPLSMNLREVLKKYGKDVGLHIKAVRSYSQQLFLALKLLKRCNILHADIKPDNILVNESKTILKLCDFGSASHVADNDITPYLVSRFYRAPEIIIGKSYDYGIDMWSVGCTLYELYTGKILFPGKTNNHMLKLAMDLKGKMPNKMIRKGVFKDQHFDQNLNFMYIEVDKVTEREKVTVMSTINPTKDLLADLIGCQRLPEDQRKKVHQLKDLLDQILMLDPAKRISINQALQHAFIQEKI
Cannabinoid receptor 2 (Homo sapiens), sequence (P34972 whole entry): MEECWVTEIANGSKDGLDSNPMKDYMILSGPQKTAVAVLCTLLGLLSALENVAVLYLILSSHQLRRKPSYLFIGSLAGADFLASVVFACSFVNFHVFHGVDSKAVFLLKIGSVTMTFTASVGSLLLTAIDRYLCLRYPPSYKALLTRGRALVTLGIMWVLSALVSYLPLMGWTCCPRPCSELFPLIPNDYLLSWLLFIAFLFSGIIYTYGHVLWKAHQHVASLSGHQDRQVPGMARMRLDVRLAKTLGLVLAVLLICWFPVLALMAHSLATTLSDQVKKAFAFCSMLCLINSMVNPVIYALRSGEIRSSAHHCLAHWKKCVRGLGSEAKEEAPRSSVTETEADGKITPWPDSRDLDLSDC
Serine/threonine-protein kinase N1, sequence (Q16512 2-942 limits assumed): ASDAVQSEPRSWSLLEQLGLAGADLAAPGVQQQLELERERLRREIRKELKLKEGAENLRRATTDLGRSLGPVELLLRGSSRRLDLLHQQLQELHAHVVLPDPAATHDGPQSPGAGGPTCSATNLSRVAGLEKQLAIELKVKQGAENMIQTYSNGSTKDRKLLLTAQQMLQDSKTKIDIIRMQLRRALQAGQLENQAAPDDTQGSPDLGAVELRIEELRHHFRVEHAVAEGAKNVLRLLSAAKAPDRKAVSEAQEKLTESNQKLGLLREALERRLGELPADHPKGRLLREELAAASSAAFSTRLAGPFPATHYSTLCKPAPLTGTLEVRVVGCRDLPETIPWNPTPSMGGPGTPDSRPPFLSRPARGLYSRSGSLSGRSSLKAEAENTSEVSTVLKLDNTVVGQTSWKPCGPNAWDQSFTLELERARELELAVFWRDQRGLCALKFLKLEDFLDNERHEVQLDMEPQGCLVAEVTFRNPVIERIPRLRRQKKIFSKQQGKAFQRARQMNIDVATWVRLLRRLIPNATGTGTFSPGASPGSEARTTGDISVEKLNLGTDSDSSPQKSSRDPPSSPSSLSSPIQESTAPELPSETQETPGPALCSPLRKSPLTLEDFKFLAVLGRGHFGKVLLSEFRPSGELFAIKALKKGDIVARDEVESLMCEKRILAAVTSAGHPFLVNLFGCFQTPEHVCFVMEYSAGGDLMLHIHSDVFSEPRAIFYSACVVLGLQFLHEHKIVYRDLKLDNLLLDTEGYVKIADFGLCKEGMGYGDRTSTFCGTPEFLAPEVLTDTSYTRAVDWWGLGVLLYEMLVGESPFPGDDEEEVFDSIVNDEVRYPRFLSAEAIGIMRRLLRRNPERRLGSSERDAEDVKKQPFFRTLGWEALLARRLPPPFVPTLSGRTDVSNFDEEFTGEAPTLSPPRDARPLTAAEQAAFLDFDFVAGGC
Beta-2 adrenergic receptor, sequence (P07550 whole entry, looked up): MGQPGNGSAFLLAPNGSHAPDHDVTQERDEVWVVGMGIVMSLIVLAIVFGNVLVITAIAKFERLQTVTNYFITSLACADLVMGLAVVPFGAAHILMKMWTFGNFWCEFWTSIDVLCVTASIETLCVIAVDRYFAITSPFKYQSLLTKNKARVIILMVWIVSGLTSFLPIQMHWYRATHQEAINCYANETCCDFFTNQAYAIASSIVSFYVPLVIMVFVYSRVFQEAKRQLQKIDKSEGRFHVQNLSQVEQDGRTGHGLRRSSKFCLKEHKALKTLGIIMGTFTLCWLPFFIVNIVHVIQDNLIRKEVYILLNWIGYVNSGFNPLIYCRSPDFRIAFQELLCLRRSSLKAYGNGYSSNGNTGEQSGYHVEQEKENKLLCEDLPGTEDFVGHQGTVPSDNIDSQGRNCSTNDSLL

Structure (SMILES): CN(C)CCOc1ccc(-c2nc(-c3ccncc3)c(-c3ccc4c(c3)CC/C4=N\O)[nH]2)cc1
- % of control [6]: 81%
- % of control [7]: 100%

Structure (SMILES): Cc1cc([C@@H](C)Nc2ccccc2C(=O)O)c2nc(N3CCOCC3)cc(=O)n2c1 [AZD-6482]
- % of control [8]: 44%

Structure (SMILES): N#Cc1cccc(-c2c[nH]c3ncnc(N4CCOCC4)c23)c1
- % of inhibition [9]: 1%

Now from value to compound:

- % of control [1]: 107%
Structure (SMILES): CC(=O)c1cc(-c2ccccc2OCC2CC2)c2ncccn12

- pXC50 [2]: < 4.5 M
Structure (SMILES): CCn1c(-c2nc3cc(C(=O)N4CCCC(N)C4)ccc3n2C)cc2ccccc21 (centres undefined)

- % of inhibition [3]: 67.7%
- % of inhibition [4]: -5.1%
Structure (SMILES): CC[C@@H]1[C@H](F)C(=O)N[C@@H]1COc1nccc2cc(C(N)=O)c(OC)cc12 [ZIMLOVISERTIB]

- % of control [5]: 95%
Structure (SMILES): CC(=O)Nc1cccc(-n2c(=O)n(C3CC3)c(=O)c3c(Nc4ccc(I)cc4F)n(C)c(=O)c(C)c32)c1
